# Experimental data taken from patent US11912699B2, “Tau-protein targeting compounds and associated” (Arvinas Operations, Inc., priority 2019, dated 2024).
# Where a name gives a salt, the structure may show the parent alone.
# Molecular target: T1, Tau P301L (Homo sapiens, UniProt P10636, P618L)
# T1 construct: expressed in transfected cells
# Assay: In vitro tau degradation assay in CHOK1 Tau P301L cells (sarkosyl insoluble tau, WES)
# Type: cell-based
# Settings: CHO-K1; CHOK1 Tau P301L cells; remaining tau in sarkosyl insoluble pellet; 48 hours with test compound at 1 μM, doxycycline removed for last 24 hours; relative to DMSO doxycycline control; read-out: Tau Protein Degradation effect at 1 μM
# Description: Exemplary bifunctional molecules of the present disclosure are represented by the structures in Table 1, which includes associated data. In vitro tau protein degradation data in CHOK1 Tau P301L cells, as described below, is reported based on the remaining tau protein in the sarkosyl insoluble pellet following treatment of cells for 48 hours with test compound at the 1 μM concentration where the last 24 hours doxycycline was removed. The data are represented relative to DMSO doxycycline control: • A ≤50% of tau protein remaining (>50% of tau protein degraded) • B >50% of tau protein remaining ([…] of tau protein degraded)
# Data for compounds in Table 1 was generated using in vitro tau Degradation Assay protocol as described in Methods for FIGS. 2A and 2B below.
# FIGS. 2A and 2B. (2A) Tau expression was induced by addition (+) of doxycycline (1 μg/ml) to ChoK1-Tau P301L clone D1.
# In vitro tau Degradation Assay for FIGS. 2A and 2B. T-Rex CHOK1 cells are maintained in Ham's F-12 Nutrient Mix (ThermoFisher) plus 10% Fetal Bovine Serum Tetracycline Negative (Corning) with 10 ug/mL Blasticidin S HCl (Gibco) and 200 ug/mL Zeocin (100 mg/mL, Invitrogen). A stable clone expressing Tau P301L in the presence of doxycycline (1 μg/ml), clone D1 was selected. Compounds were diluted to indicated concentrations and used to treat cells for the indicated times. Cells were harvested from either 96, 24, 6, or 10 cm dishes coated with Poly-D-Lysine (Corning) in ice cold PBS or Buffer H+HALT Protease and phosphatase inhibitors (Thermofisher). Sarkosyl Insoluble tau was isolated as described in Eckermann et al. and Greenberg and Davies, accordingly. WES™ capillary electrophoresis analysis was performed on the Sarkosyl Insoluble tau fraction using Tau1 antibody (Milipore) unless otherwise indicated, as specified in the manufacturers specification (ProteinSimple).
# T1 sequence (P10636 1-441 isoform P10636-8 P301L): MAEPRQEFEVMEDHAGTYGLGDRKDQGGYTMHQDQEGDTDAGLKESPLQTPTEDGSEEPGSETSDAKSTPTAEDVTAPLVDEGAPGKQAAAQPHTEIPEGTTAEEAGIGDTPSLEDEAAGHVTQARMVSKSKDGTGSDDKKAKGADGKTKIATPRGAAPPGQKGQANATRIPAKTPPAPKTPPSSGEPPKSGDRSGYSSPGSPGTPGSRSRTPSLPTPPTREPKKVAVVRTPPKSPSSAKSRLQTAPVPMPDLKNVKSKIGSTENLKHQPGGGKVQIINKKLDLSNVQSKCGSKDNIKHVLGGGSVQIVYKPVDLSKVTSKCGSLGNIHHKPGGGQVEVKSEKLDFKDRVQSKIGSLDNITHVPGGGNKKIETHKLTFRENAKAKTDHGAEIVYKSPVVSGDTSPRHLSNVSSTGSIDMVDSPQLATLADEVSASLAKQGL
row,remaining activity at 1 µM [%],Compound
1,< 50,"COc1ccc2nc(/C=C/C=C/c3ccc(OCCOCCOc4ccc5c(c4)C(=O)N(C4CCC(=O)NC4=O)C5=O)nc3)sc2c1 (stereo not shown) [Compound 626, 2-(2,6-dioxopiperidin-3-yl)-5-(2-(2-((5-((1E,3E)-4-(6-methoxybenzo[d]thiazol-2-yl)buta-1,3-dien-1-yl)pyridin-2-yl)oxy)ethoxy)ethoxy) isoindoline-1,3-dione]"
2,< 50,O=C1CCC(N2C(=O)c3cc(F)c(OCCN4CCC(O[C@H]5C[C@@H](N6CCC(c7ccc8c9cnccc9n(C(F)F)c8c7)CC6)C5)CC4)cc3C2=O)C(=O)N1 (stereo partly shown) [Compound 644]
3,< 50,"COc1cc(N2CCN(CCC3CCN(c4ncc(-c5ccc6c7cnccc7n(C(F)F)c6c5)cc4F)CC3)CC2)cc2c1C(=O)N(C1CCC(=O)NC1=O)C2=O (stereo not shown) [Compound 635, 6-(4-(2-(1-(5-(5-(difluoromethyl)-5H-pyrido[4,3-b]indol-7-yl)-3-fluoropyridin-2-yl)piperidin-4-yl)ethyl)piperazin-1-yl)-2-(2,6-dioxopiperidin-3-yl)-4-methoxyisoindoline-1,3-dione]"
4,< 50,O=C1CCC(N2C(=O)c3ccc(N4CCC(OC5CCN(C[C@H]6C[C@H](Oc7ncc(-c8ccc9c%10cnccc%10n(C(F)F)c9c8)cc7F)C6)CC5)CC4)cc3C2=O)C(=O)N1 (stereo partly shown) [Compound N637]

row,Compound,remaining activity at 1 µM [%]
1,CC(C)N(C1CCN(c2ncc(-c3ccc4c5cnccc5n(C(F)F)c4c3)cc2F)CC1)[C@H]1C[C@H](Oc2ccc3c(c2)C(=O)N(C2CCC(=O)NC2=O)C3=O)C1 (stereo partly shown) [Compound 638],< 50

# Same assay, conditions: CHO-K1; remaining tau protein in sarkosyl insoluble pellet; CHOK1 Tau P301L cells treated 48 hours with test compound at 1 μM, doxycycline removed for the last 24 hours; relative to DMSO doxycycline control; read-out: Tau Protein Degradation effect at 1 μM
row,remaining activity at 1 µM [%],Compound
1,< 50,"Cn1c2ccncc2c2ccc(-c3ccc(O[C@H]4C[C@H](CN5CCN(CCCCCOc6ccc7c(c6)C(=O)N(C6CCC(=O)NC6=O)C7=O)CC5)C4)nc3)cc21 (stereo partly shown) [Compound 387, 2-(2,6-dioxopiperidin-3-yl)-5-((5-(4-(((1r,3r)-3-((5-(5-methyl-5H-pyrido[4,3-b]indol-7-yl)pyridin-2-yl)oxy)cyclobutyl)methyl)piperazin-1-yl)pentyl)oxy) isoindoline-1,3-dione]"
2,< 50,"O=C1CCC(N2Cc3cc(N4CCN(CCC5CCN(c6ncc(-c7ccc8c9cnccc9n(C(F)F)c8c7)cc6C(F)(F)F)CC5)CC4)ccc3C2=O)C(=O)N1 (stereo not shown) [Compound 543, 3-(5-(4-(2-(1-(5-(5-(difluoromethyl)-5H-pyrido[4,3-b]indol-7-yl)-3-(trifluoromethyl)pyridin-2-yl)piperidin-4-yl)ethyl)piperazin-1-yl)-1-oxoisoindolin-2-yl)piperidine-2,6-dione]"
3,< 50,"Cn1c2ccncc2c2ccc(-c3ccc(O[C@H]4C[C@H](CN5CCC(CCCCCOc6ccc7c(c6)C(=O)N(C6CCC(=O)NC6=O)C7=O)CC5)C4)nc3)cc21 (stereo partly shown) [Compound 393, 2-(2,6-dioxopiperidin-3-yl)-5-((5-(1-(((1r,3r)-3-((5-(5-methyl-5H-pyrido[4,3-b]indol-7-yl)pyridin-2-yl)oxy)cyclobutyl)methyl)piperidin-4-yl)pentyl)oxy) isoindoline-1,3-dione]"
4,< 50,"Cn1c2ccncc2c2ccc(-c3ccc(O[C@H]4C[C@H](CN5CC6(CN(CCOc7ccc8c(c7)C(=O)N(C7CCC(=O)NC7=O)C8=O)C6)C5)C4)nc3)cc21 (stereo partly shown) [Compound 386, 2-(2,6-dioxo-3-piperidyl)-5-[2-[2-[[3-[[5-(5-methylpyrido[4,3-b]indol-7-yl)-2-pyridyl]oxy]cyclobutyl]methyl]-2,6-diazaspiro[3.3]heptan-6-yl]ethoxy]isoindoline-1,3-dione diformate]"
5,> 50,"Cc1ncsc1-c1ccc([C@H](C)NC(=O)[C@@H]2C[C@@H](O)CN2C(=O)[C@@H](NC(=O)COCCOCCOCCOCCOc2ccc3cc(-n4ccc5ccncc54)ncc3c2)C(C)(C)C)cc1 [Compound 375, (2S,4R)-1-((S)-17-((3-(1H-pyrrolo[2,3-c]pyridin-1-yl)isoquinolin-7-yl)oxy)-2-(tert-butyl)-4-oxo-6,9,12,15-tetraoxa-3-azaheptadecanoyl)-4-hydroxy-N-((S)-1-(4-(4-methylthiazol-5-yl)phenyl)ethyl) pyrrolidine-2-carboxamide]"
6,< 50,"O=C1CCC(N2C(=O)c3ccc(N4CCN(CC5CCN(c6ncc(-c7ccc8c9cnccc9n(C(F)F)c8c7)cc6C(F)(F)F)CC5)CC4)cc3C2=O)C(=O)N1 (stereo not shown) [Compound 494, 5-(4-((1-(5-(5-(difluoromethyl)-5H-pyrido[4,3-b]indol-7-yl)-3-(trifluoromethyl)pyridin-2-yl)piperidin-4-yl)methyl)piperazin-1-yl)-2-(2,6-dioxopiperidin-3-yl)isoindoline-1,3-dione]"
7,< 50,"O=C1CCC(N2C(=O)c3ccc(N4CCN(CCC5CCN(c6ncc(-c7ccc8c9cnccc9n(C(F)F)c8c7)cc6F)CC5)CC4)cc3C2=O)C(=O)N1 (stereo not shown) [Compound 532, 5-[4-[2-[1-[5-[5-(difluoromethyl)pyrido[4,3-b]indol-7-yl]-3-fluoro-2-pyridyl]-4-piperidyl]ethyl]piperazin-1-yl]-2-(2,6-dioxo-3-piperidyl)isoindoline-1,3-dione trifluoroacetate]"
8,< 50,"O=C1CCC(N2C(=O)c3ccc(N4CCN(CCC5CCN(c6ncc(-c7ccc8c9cnccc9n(C(F)F)c8c7)cn6)CC5)CC4)cc3C2=O)C(=O)N1 (stereo not shown) [Compound 514, 5-(4-(2-(1-(5-(5-(difluoromethyl)-5H-pyrido[4,3-b]indol-7-yl)pyrimidin-2-yl)piperidin-4-yl)ethyl)piperazin-1-yl)-2-(2,6-dioxopiperidin-3-yl)isoindoline-1,3-dione]"
9,< 50,"Cn1c2ccncc2c2ccc(C#CC3CCN(CCN4CCN(c5ccc6c(c5)C(=O)N(C5CCC(=O)NC5=O)C6=O)CC4)CC3)cc21 (stereo not shown) [Compound 533, 2-(2,6-dioxopiperidin-3-yl)-5-(4-(2-(4-((5-methyl-5H-pyrido[4,3-b]indol-7-yl)ethynyl)piperidin-1-yl)ethyl)piperazin-1-yl)isoindoline-1,3-dione]"

row,Compound,remaining activity at 1 µM [%]
1,"Cc1ncsc1-c1ccc([C@H](C)NC(=O)[C@@H]2C[C@@H](O)CN2C(=O)[C@@H](c2cc(OCCN3CCN(CCN4CCC(O[C@H]5C[C@H](Oc6ccc(-c7ccc8c9cnccc9n(C)c8c7)cn6)C5)CC4)CC3)no2)C(C)C)cc1 [Compound 372, (2S,4R)-4-hydroxy-1-((R)-3-methyl-2-(3-(2-(4-(2-(4-((1r,3r)-3-((5-(5-methyl-5H-pyrido[4,3-b]indol-7-yl)pyridin-2-yl)oxy)cyclobutoxy)piperidin-1-yl)ethyl)piperazin-1-yl)ethoxy)isoxazol-5-yl)butanoyl)-N-((S)-1-(4-(4-methylthiazol-5-yl)phenyl)ethyl) pyrrolidine-2-carboxamide]",> 50
2,"CC(C)N(CCCCOc1ccc2c(c1)C(=O)N(C1CCC(=O)NC1=O)C2=O)[C@H]1CC[C@H](O[C@H]2C[C@H](Oc3ccc(-c4ccc5c6cnccc6n(C)c5c4)cn3)C2)CC1 (stereo partly drawn) [Compound 436, 2-(2,6-dioxopiperidin-3-yl)-5-(4-(isopropyl((1R,4r)-4-((1r,3R)-3-((5-(5-methyl-5H-pyrido[4,3-b]indol-7-yl)pyridin-2-yl)oxy)cyclobutoxy)cyclohexyl)amino)butoxy)isoindoline-1,3-dione]",< 50
3,"Cn1c2ccncc2c2ccc(-c3ccc(O[C@H]4C[C@H](OCCCN5CCN(c6ccc7c(c6)C(=O)N(C6CCC(=O)NC6=O)C7=O)CC5)C4)nc3)cc21 (stereo partly shown) [Compound 343, 2-(2,6-dioxopiperidin-3-yl)-5-(4-(3-((1r,3r)-3-((5-(5-methyl-5H-pyrido[4,3-b]indol-7-yl)pyridin-2-yl)oxy)cyclobutoxy)propyl)piperazin-1-yl)isoindoline-1,3-dione]",< 50

# Same assay, conditions: remaining tau protein in sarkosyl insoluble pellet; CHOK1 Tau P301L cells treated 48 hours with test compound at 1 μM, doxycycline removed for the last 24 hours; relative to DMSO doxycycline control
row,Compound,Tau Protein Degradation effect at 1 μM
1,Cc1ncsc1-c1ccc([C@H](C)NC(=O)[C@@H]2C[C@@H](O)CN2C(=O)[C@@H](c2cc(OCCOCCOCCOc3ccc(-c4ccc5c(c4)[nH]c4ccncc45)cn3)no2)C(C)C)cc1 [Compound 396],A (≤50% of tau protein remaining (>50% of tau protein degraded))
2,"O=C1CCC(N2C(=O)c3ccc(N4CCN(CCCC5CCN(CC6CC(Oc7ccc(-c8ccc9c(c8)[nH]c8ccncc89)cn7)C6)CC5)CC4)cc3C2=O)C(=O)N1 (stereo not shown) [Compound 376, 5-(4-(3-(1-(((1r,3r)-3-((5-(5H-pyrido[4,3-b]indol-7-yl)pyridin-2-yl)oxy)cyclobutyl)methyl)piperidin-4-yl)propyl)piperazin-1-yl)-2-(2,6-dioxopiperidin-3-yl)isoindoline-1,3-dione]",B (>50% of tau protein remaining (≥50% of tau protein degraded))
